Consider 25 molecules from patent US6281356A, “Substituted pyrroles” (Hoffmann-La Roche Inc., priority 2000, dated 2001).

pIC50: −log10 of the molar value.

The test system of the assay is epithelial breast carcinoma cell line (MDAMB-435). Nature of the assay: Antiproliferative activity (growth inhibition, MTT), epithelial breast carcinoma cell line MDAMB-435. The format is cell-based. The note with it: Homo sapiens, MDA-MB-435, 120 h, 5 days post drug addition, 0.1% DMSO, read-out: IC50 (growth inhibition of MDAMB-435 cells). How it is done: The epithelial breast carcinoma cell line (MDAMB-435) was purchased from ATCC (American Type Cell Culture Collection) and was grown in culture medium as recommended by ATCC. For analysis of the effect of various compounds of formula I on the growth of these cells, the cells were plated at a concentration of 1500 cells/well in a 96 well tissue culture plate ("test plate"). The day after the cells were plated, the compounds to be analyzed were dissolved in 100% DMSO (dimethyl sulfoxide) to yield at 10 mM stock solution. Each compound was diluted in H2 O to 1 mM and was added to triplicate wells in the first row of a 96 well master plate containing medium to yield a final concentration of 40 μM. The compounds were then serially diluted in medium in the "master plate". The diluted compound(s) were then transferred to test plates containing cells. A row of vehicle "control cells" received DMSO. The final concentration of DMSO in each well was 0.1%. 5 days post drug addition, the plate was analyzed as described below.
MTT (3-(4-5 methyl thiazole-2-yl)-2,5-diphenyl tetrazolium bromide; thiazolyl blue) was added to each well to yield a final concentration of 1 mg/ml. The plate was then incubated at 37° C. for 21/2-3 hours. The MTT-containing medium was then removed and 50 μl of 100% ethanol was added to each well to dissolve the formazan. The absorbences were then read using an automated plate reader (Bio-tek microplate reader). IC50 s were calculated using the Reed and Munsch equation, see Am. J. Hygiene Vol. 27 pgs. 493-497,1938.
Usually pIC50 stands for the negative decadic logarithm of the IC50, by convention in mol/L. With `Cn1cncc1-c1ccc2c(C3=C(c4cn(C)c5ccccc45)C(=O)NC3=O)cn(C)c2c1` [Example 2a, 3-(1-Methyl-1H-indol-3-yl)-4-[1-methyl-6-(3-methyl-3H-imidazol-4-yl)-1H-indol-3-yl]pyrrole-2,5-dione], the pIC50 was 7.30.

In the case of `COc1ccc2c(C3=C(c4cn(C)c5cc(-n6ccnc6)ccc45)C(=O)NC3=O)cn(C)c2c1` [Example 9, 3-(6-Imidazol-1-yl-1-methyl-1H-indol-3-yl)-4-(6-methoxy-1-methyl-1H-indol-3-yl)-pyrrole-2,5-dione], the negative logarithm of the IC50 (pIC50) was 7.22. To `Cn1cc(C2=C(c3cn(C)c4cc(-c5ccns5)ccc34)C(=O)NC2=O)c2ccccc21` [Example 2n, 3-(6-Isothiazol-5-yl-1-methyl-1H-indol-3-yl)-4-(1-methyl-1H-indol-3-yl)-pyrrole-2,5-dione] belongs 7.40; to `Cn1cc(C2=C(c3cn(C)c4cc([N+](=O)[O-])ccc34)C(=O)NC2=O)c2ccc(-n3cccn3)cc21` [Example 8c, 3-(1-Methyl-6-nitro-1H-indol-3-yl)-4-(1-methyl-6-pyrazol-1-yl-1H-indol-3-yl)pyrrole-2,5-dione], 7.70. As to `Cn1cc(C2=C(c3cn(C)c4cc(-c5ccsc5)ccc34)C(=O)NC2=O)c2ccccc21` [Example 5, 3-(1-Methyl-1H-indol-3-yl)-4-(1-methyl-6-thiophen-3-yl-1H-indol-3-yl)pyrrole-2,5-dione], the pIC50 was 7.40. Regarding `CN1CCN(c2ccc3c(C4=C(c5cn(C)c6ccccc56)C(=O)NC4=O)cn(C)c3c2)CC1` [Example 12k, 3-(1-Methyl-1H-indol-3-yl)-4-[1-methyl-6-(4-methyl-piperazin-1-yl)-1H-indol-3-yl]pyrrole-2,5-dione], the pIC50 is 5.47.

For the molecule `Cn1cc(C2=C(c3c[nH]c4cc(N5CCCC5)ccc34)C(=O)NC2=O)c2ccc(F)cc21` [Example 12e, 3-(6-Fluoro-1-methyl-1H-indol-3-yl)-4-(6-pyrrolidin-1-yl-1H-indol-3-yl)pyrrole-2,5-dione], the pIC50 was 8.52. To `Cn1cc(C2=C(c3cn(C)c4cc([N+](=O)[O-])ccc34)C(=O)NC2=O)c2ccc(N3CCCC3)cc21` [Example 12d, 3-(1-Methyl-6-nitro-1H-indol-3-yl)-4-(1-methyl-6-pyrrolidin-1-yl-1H-indol-3-yl)pyrrole-2,5-dione] belongs 8.70.

For the molecule `Cn1cc(C2=C(c3cn(C)c4cc([N+](=O)[O-])ccc34)C(=O)NC2=O)c2ccc(-c3cncnc3)cc21` [Example 18, 3-(1-Methyl-6-nitro-1H-indol-3-yl)-4-(1-methyl-6-pyrimidin-5-yl-1H-indol-3-yl)pyrrole-2,5-dione], the negative logarithm of the IC50 (pIC50) was 7.30. To `Cn1cc(C2=C(c3cn(C)c4cc(-c5nccs5)ccc34)C(=O)NC2=O)c2ccccc21` [Example 4a, 3-(1-Methyl-1H-indol-3-yl)-4-(1-methyl-6-thiazol-2-yl-1H-indol-3-yl)pyrrole-2,5-dione] belongs 7.62. Turning to `Cn1cc(C2=C(c3cn(C)c4cc([N+](=O)[O-])ccc34)C(=O)NC2=O)c2ccc(-c3ncc[nH]3)cc21` [Example 2o, 3-[6-(1H-Imidazol-2-yl)-1-methyl-1H-indol-3-yl]-4-(1-methyl-6-nitro-1H-indol-3-yl)-pyrrole-2,5-dione], the negative-log IC50 (pIC50) was 7.40. To `COc1ccc2c(C3=C(c4cn(C)c5cc(N6CCOCC6)ccc45)C(=O)NC3=O)cn(C)c2c1` [Example 14a, 3-(6-Methoxy-1-methyl-1H-indol-3-yl)-4-(1-methyl-6-morpholin-4-yl-1H-indol-3-yl)pyrrole-2,5-dione] belongs 7.70; to `Cn1cc(C2=C(c3cn(C)c4cc(-c5cncnc5)ccc34)C(=O)NC2=O)c2ccccc21` [Example 19, 3-(1-Methyl-1-indol-3-yl)-4-(1-methyl-6-pyrimidin-5-yl-1H-indol-3-yl)pyrrole-2,5-dione], 7.10. To `Cn1cc(C2=C(c3cn(C)c4cc(N5CCCCC5)ccc34)C(=O)NC2=O)c2ccccc21` [Example 12l, 3-(1-Methyl-1H-indol-3-yl)-4-(1-methyl-6-piperidin-1-yl-1H-indol-3-yl)pyrrole-2,5-dione] belongs 6.64; to `Cn1cc(C2=C(c3cn(C)c4cc([N+](=O)[O-])ccc34)C(=O)NC2=O)c2ccc(-c3ccsc3)cc21` [Example 6, 3-(1-methyl-6-nitro-1H-indol-3-yl)-4-(1-methyl-6-thiophen-3-yl-1H-indol-3-yl)pyrrole-2,5-dione], 7.40; to `Cn1cc(C2=C(c3cn(C)c4cc(-n5cccn5)ccc34)C(=O)NC2=O)c2ccc(Br)cc21` [Example 8e, 3-(6-Bromo-1-methyl-1H-indol-3-yl)-4-(1-methyl-6-pyrazol-1-yl-1H-indol-3-yl)pyrrole-2,5-dione], 7.60.

With `Cn1cc(C2=C(c3cn(C)c4cc(-c5ncc[nH]5)ccc34)C(=O)NC2=O)c2ccccc21` [Example 2e, 3-[6-(1H-Imidazol-2-yl)-1-methyl-1H-indol-3-yl]-4-(1-methyl-1H-indol-3-yl)pyrrole-2,5-dione], the negative-log IC50 (pIC50) was 7.10. To `Cn1cc(C2=C(c3cn(C)c4cc(-n5cccn5)ccc34)C(=O)NC2=O)c2ccccc21` [Example 8d, 3(1-Methyl-1H-indol-3-yl)-4-(1-methyl-6-pyrazol-1-yl-1H-indol-3-yl)pyrrole-2,5-dione] belongs 7.52.

In the case of `Cn1cc(C2=C(c3c[nH]c4cc(N5CCCC5)ccc34)C(=O)NC2=O)c2ccc([N+](=O)[O-])cc21` [Example 12h, 3-(1-Methyl-6-nitro-1H-indol-3-yl)-4-(6-pyrrolidin-1-yl-1H-indol-3-yl)pyrrole-2,5-dione], the pIC50 is 8.70.

For `COc1ccc2c(C3=C(c4cn(C)c5cc(N6CCCC6)ccc45)C(=O)NC3=O)cn(C)c2c1` [Example 14g, 3-(6-Methoxy-1-methyl-1H-indol-3-yl)-4-(1-methyl-6-pyrrolidin-1-yl-1H-indol-3-yl)pyrrole-2,5-dione], the pIC50 is 7.40. `COc1ccc2c(C3=C(c4cn(C)c5cc(-c6cncn6C)ccc45)C(=O)NC3=O)cn(C)c2c1` [Example 2b, 3-(6-Methoxy-1-methyl-1H-indol-3-yl)-4-[1-methyl-6-(3-methyl-3H-imidazol-4-yl)-1H-indol-3-yl]pyrrole-2,5-dione]: the pIC50 was 7.22. Consider `Cn1cc(C2=C(c3c[nH]c4cc(N5CCOCC5)ccc34)C(=O)NC2=O)c2ccccc21` [Example 12o, 3-(1-Methyl-1H-indol-3-yl)-4-(6-morpholin-4-yl-1H-indol-3-yl)pyrrole-2,5-dione], for which the negative logarithm of the IC50 (pIC50) was 7.43. As to `Cn1cc(C2=C(c3c[nH]c4ccccc34)C(=O)NC2=O)c2ccc(N3CCOCC3)cc21` [Example 12c, 3-(1H-Indol-3-yl)-4-(1-methyl-6-morpholin-4-yl-1H-indol-3-yl)pyrrole-2,5-dione], the negative logarithm of the IC50 (pIC50) is 7.15. To `Cn1cc(C2=C(c3cn(C)c4cc([N+](=O)[O-])ccc34)C(=O)NC2=O)c2ccc(-c3nccs3)cc21` [Example 4c, 3-(1-Methyl-6-nitro-1H-indol-3-yl)-4-(1-methyl-6-thiazol-2-yl-1H-indol-3-yl)pyrrole-2,5-dione] belongs 7.70; to `Cn1cc(C2=C(c3cn(C)c4cc(-c5ccco5)ccc34)C(=O)NC2=O)c2ccccc21` [Example 2g, 3-(6-Furan-2-yl-1-methyl-1H-indol-3-yl)-4-(1-methyl-1H-indol-3-yl)pyrrole-2,5-dione], 7.70.
